Results on 18 compounds are retold here after ChEMBL document CHEMBL1201862, “PubChem BioAssay data set” (2004).

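Assay format: 96-well plates, 48-hour exposure. GI50 is the concentration that inhibits growth by half.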 Calls of active or inactive are those of the source. Cut-off read from the data, not from the text of the source: active = GI50 up to about 1.1 µM and inactive = higher.

Test systems include Hs-578T; BT-549; MDA-N; M19-MEL; SNB-78; XF498; LXFL 529; RXF 631.
Holding throughout (assay): growth of human tumour cells (NCI), 48 h

As for `CC(=O)Nc1ccc2[nH]c(C(=O)N3CC(CCl)c4c3cc(N)c3ccccc43)cc2c1` (stereo not given), the GI50 with Hs-578T was < 0.01 µM (active); in the experiment on BT-549, < 0.0312 µM (active); with MDA-N, 0.0177 µM (active).

With `CCCCCCCCCOCC(COP(=O)([O-])OCC[N+](C)(C)C)OC` (stereo not given), the GI50 in the experiment on M19-MEL, with SNB-78 and with XF498 was > 100 µM (inactive) throughout.

As to `COc1ccc(N2CN(C)CSC2=S)cc1`, the GI50 with Hs-578T was > 100 µM (inactive); in the experiment on BT-549 it was 75.5 µM (inactive).

For `CCCOC1OC(CS(=O)(=O)O)C(OC(C)=O)C(OC(C)=O)C1OC(C)=O` (stereo not given), the GI50 in the experiment with Hs-578T, in the experiment with BT-549 and in the experiment with MDA-N was > 100 µM (inactive) each time.

On to `COC(=O)Cc1c(-c2c(CC(=O)OC)c3ccccc3n2C2OC(COC(C)=O)C(OC(C)=O)C(OC(C)=O)C2OC(C)=O)[nH]c2ccccc12` (stereo not given), for which the GI50 with BT-549 and with MDA-N was > 100 µM (inactive) each time.

Consider `CCOC(=O)NC(=O)c1cn(CCN(CCO)C(=O)NCCCCCCNC(=O)N(CCO)CCn2cc(C(=O)NC(=O)OCC)c(=O)[nH]c2=O)c(=O)[nH]c1=O`, for which the GI50 in the experiment on M19-MEL, in the experiment on SNB-78 and with XF498 was > 100 µM (inactive) each time.

As for `O=C1CCC(c2ccc(Cl)cc2)=NN1c1nsc2ccccc12`, the GI50 in the experiment on LXFL 529 is 26.8 µM (inactive); in the experiment on M19-MEL, 37.2 µM (inactive); with SNB-78, 25.4 µM (inactive).

With `O=C(N/N=C\c1cccc2ccccc12)Nc1ccccc1`, the GI50 in the experiment with Hs-578T, with BT-549 and in the experiment on MDA-N was > 100 µM (inactive) in each case.

With `COc1ccc(-c2c3ccccc3c(-c3ccc(OCCCCCBr)cc3)c3ccccc23)cc1`, the GI50 with LXFL 529 and in the experiment on M19-MEL was > 100 µM (inactive) each time.

For `CN(C)[C@@H]1C(O)=C(C(=O)NCN2CCN(C(=N)NC(=N)N)CC2)C(=O)[C@@]2(O)C(O)=C3C(=O)c4c(O)cccc4[C@@](C)(O)[C@H]3C[C@@H]12`, the GI50 was 0.0857 µM (active) with LXFL 529; 0.31 µM (active) in the experiment with M19-MEL; 0.166 µM (active) with RXF 631; 0.0698 µM (active) in the experiment with SNB-78; 0.091 µM (active) with XF498.

Turning to `Cc1ccc(S(=O)(=O)NCCCSCCSCCCN)cc1`, the GI50 in the experiment on Hs-578T and with MDA-N was > 100 µM (inactive) each time.

Regarding `O=C1N[C@@H]2C(=C[C@H](O)[C@@H](O)[C@H]2O)c2cc3c(c(O)c21)OCO3` [NARCICLASINE], the GI50 in the experiment on SNB-78 and in the experiment on XF498 was 0.045 µM (active) each time.

In the case of `Cc1ccc2c(=O)c3ccccc3sc2c1`, the GI50 in the experiment with LXFL 529 and with M19-MEL was > 100 µM (inactive) throughout.

Turning to `O=C1CNC(=O)N1` [HYDANTOIN], the values for the GI50 in the experiment with M19-MEL, in the experiment on SNB-78 and in the experiment on XF498 were > 1120 µM (inactive), > 1120 µM (inactive) and > 11.2 µM (inactive), respectively.

As for `Cc1c2cc[n+](C)cc2c(C)c2c1[nH]c1ccccc12`, the GI50 with M19-MEL was 0.984 µM (active); in the experiment on XF498, 0.548 µM (active).

Turning to `CCCCCCCCCCCCCCCC(=O)OC1C(O)C(CO)OC(OC)C1NC(=O)N(CCCl)N=O` (stereo not given), the GI50 was 12.6 µM (inactive) in the experiment on LXFL 529; 15.9 µM (inactive) in the experiment with M19-MEL; 16.8 µM (inactive) with RXF 631; 19.5 µM (inactive) with SNB-78; 14.6 µM (inactive) with XF498.

For the compound `O=[PH](O)c1cccs1`, the GI50 in the experiment on LXFL 529, in the experiment on M19-MEL and in the experiment on XF498 was > 100 µM (inactive) each time.

Consider `C=CCn1c(=O)c(Br)nn(CCOCP(=O)(OCC)OCC)c1=O`, for which the GI50 with Hs-578T and in the experiment on MDA-N was > 100 µM (inactive) in each case.
